Experimental data reported in US10941157B2, “Pesticidal compositions and uses thereof” (Gilead Apollo, LLC, priority 2015, dated 2021).
In brackets after ≈: the same amount, converted by molar mass. Read-outs that look alike come from different tables or passages of the source.

Key:
Botrtyis cinerea (Bc) = experiment: In vitro pathogen growth inhibition assay, Bc; assay type: cell-based; conditions: 48 h
In short: (§1)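 Value reported is the compound concentration reaching ≥90% growth inhibition, from OD readings at 24 and 48 h after blank subtraction, confirmed visually. Inoculum was spores diluted in 17% V8 medium, except Rs, using 1.5 mm mycelial plugs in ¼ PDB; actual compound concentration corrected via OD600.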

[1] = tested on: Phytophthora capsici (Pc); experiment: In vitro pathogen growth inhibition assay, Pc; assay type: cell-based; conditions: 48 h
In short: (§2)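 Spores in 17% V8 liquid medium, or 1.5 mm Rs mycelial plugs in ¼ PDB, incubated with compound; final concentration checked by OD600 for precipitation. OD readings at 24 and 48 h, blank-subtracted, plus visual ratings; value is concentration giving ≥90% growth inhibition.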

Phakopsora pachyrhizi = experiment: Foliar protection test for Asian soybean rust control; assay type: in vivo; conditions: foliar application to soybean (Glycine max AG4832), percent disease area evaluated 14 days later
Fusarium graminearum [2] = assay type: in vivo; conditions: corn from treated seeds, 0.025 mg/seed, F. graminearum inoculated
Fusarium graminearum [3] = assay type: in vivo; conditions: spray on flowering Triticum aestivum cv. Samson, inoculated 24 hours after treatment, evaluated 14 days later
Diplodia maydis (Dm) = experiment: In vitro pathogen growth inhibition assay, Dm; assay type: cell-based; conditions: Stenocarpella maydis, 48 h
In short: as §2

[4] = tested on: Fusarium virguliforme (Fv); experiment: In vitro pathogen growth inhibition assay, Fv; assay type: cell-based
In short: as §2

[5] = tested on: Blumeria graminis f. sp. hordei; experiment: Foliar protection test for barley powdery mildew control; assay type: in vivo; conditions: foliar spray on Hordeum vulgare cv. Perry, inoculated 24 hours after treatment, evaluated 7 days later
In short: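 Protective foliar test: compound atomized onto both leaf surfaces of 6-day-old Hordeum vulgare cv. Perry, followed after 24 h by spore-cloud inoculation from colonized untreated plants. Disease rated on leaves 7 days on, plants held at 20 to 22° C and 70% RH.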

Sphaerotheca fuliginea = experiment: Foliar protection for cucumber powdery mildew control; assay type: in vivo; conditions: foliar spray on Cucumis sativus cv. Straight Eight, inoculated 24 hours after treatment, evaluated 7 days later
In short: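 Protective foliar spray on 10-day-old Straight Eight cucumbers, with S. fuliginea spores dusted from infected stock plants 24 h after treatment. Disease developed at 23–27 °C, 60% RH and a 16 h photoperiod. Leaves were rated for mildew growth after 7 days; test rates 10 ppm or below.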

[6] = tested on: Fusarium moniliforme (Fm); experiment: In vitro pathogen growth inhibition assay, Fm; assay type: cell-based; conditions: Fusarium verticillioides
In short: as §1

Puccinia triticina = experiment: Foliar protection test for wheat leaf rust control; assay type: in vivo; conditions: foliar application to wheat (Triticum aestivum cv. Winterhawk), evaluated 10 days later
Rhizoctonia solani (Rs) = experiment: In vitro pathogen growth inhibition assay, Rs (mycelial plugs); assay type: cell-based; conditions: Rhizoctonia solani, 48 h, mycelial plugs
In short: as §2

[7] = tested on: Collectotrichum graminicola (Cg); experiment: In vitro pathogen growth inhibition assay, Cg; assay type: cell-based; conditions: 48 h
In short: as §1

Septoria tritici (St) = experiment: In vitro pathogen growth inhibition assay, St; assay type: cell-based; conditions: Zymoseptoria tritici, 48 h
In short: as §1

[8] = tested on: Mycosphaerella graminicola (synthetic Septoria tritici); experiment: Foliar protection test for wheat septoria leaf blotch control; assay type: in vivo; conditions: foliar spray on Triticum aestivum cv. WinterHawk, inoculated 1 hour after treatment, evaluated 16 days later
Pythium ultimum = experiment: Seed protectant for soybean seedling disease, P. ultimum; assay type: in vivo; conditions: soybean from treated seeds, 0.025 mg/seed, P. ultimum inoculated
Experimental: (§3) The pathogen of Rhizoctonia solani inoculum was grown on sterile sorghum; and the pathogen of Pythium ultimum inoculum was grown on white millet.
(§4) Soybean seeds (Glycine max cv. AG4832) were planted in 2.5-inch square pots containing Berger BM2 germination mix amended with fertilizer (e.g., 14-14-14). Pots with soil were inoculated with the pathogen of R. solani or P. ultimum at time of planting. A hole was pressed into the soil to a depth of about 2 to 3 cm; the inoculum was added to the hole, followed by the seed which was then covered with soil. Two seeds per pot were planted. Plants were grown in a growth chamber at conditions of 20 to 24° C., 14 hour light cycle, 500 uM of light, and 65% humidity. The pots inoculated with P. ultimum were sub-irrigated every day; and the pots inoculated with R. solani were sub-irrigated every other day.
(§5) Seedling emergence was captured at 7 and 14 days after seeding. At 14 days, the top of the plant was removed and fresh weight was recorded. The plant weights from the seeds treated with test compounds (e.g., in formulations) were compared to the ones either from the inoculated non-treated seeds or non-inoculated non-treated seeds. Table 10 lists the results of the R. solani control in soybean upon seed treatment with test compounds, and Table 11 lists the results of the P. ultimum control in soybean upon seed treatment with test compounds, respectively.

Rhizoctonia solani = experiment: Seed protectant for soybean seedling disease, R. solani; assay type: in vivo; conditions: soybean from treated seeds, 0.025 mg/seed, R. solani inoculated
Experimental: as §3, §4, §5

[9] = ≥90% growth inhibition, 48 hours, vs 2% DMSO control, read-out: Compound Concentration (ppm) sufficient for ≥90% inhibition of Bc
[10] = ≥90% growth inhibition, 48 hours, vs 2% DMSO control, read-out: Compound Concentration (ppm) sufficient for ≥90% inhibition of Pc
[11] = ≥90% growth inhibition, 48 hours, vs 2% DMSO control, read-out: Compound Concentration (ppm) sufficient for ≥90% inhibition of Dm
[12] = ≥90% growth inhibition, 48 hours, vs 2% DMSO control, read-out: Compound Concentration (ppm) sufficient for ≥90% inhibition of Fv
[13] = ≥90% growth inhibition, 48 hours, vs 2% DMSO control, read-out: Compound Concentration (ppm) sufficient for ≥90% inhibition of Fm
[14] = ≥90% growth inhibition, 48 hours, vs 2% DMSO control, read-out: Compound Concentration (ppm) sufficient for ≥90% inhibition of Rs
[15] = ≥90% growth inhibition, 48 hours, vs 2% DMSO control, read-out: Compound Concentration (ppm) sufficient for ≥90% inhibition of Cg
[16] = ≥90% growth inhibition, 48 hours, vs 2% DMSO control, read-out: Compound Concentration (ppm) sufficient for ≥90% inhibition of St
[17] = percentage of non-inoculated non-treated controls

Row | SMILES | IC90 (Botrtyis cinerea (Bc); [9]) [µg/mL] | IC90 [1, 10] [µg/mL] | Asian Soybean Rust Control at a compound concentration of 25 ppm or lower (Phakopsora pachyrhizi) | Wheat Fusarium Head Blight Control at a compound concentration of 25 ppm or lower (Fusarium graminearum [3]) | IC90 (Diplodia maydis (Dm); [11]) [µg/mL] | IC90 [4, 12] [µg/mL] | Barley Powdery Mildew Control at a compound concentration of 10 ppm or lower [5] | Cucumber Powdery Mildew Control at a compound concentration of 10 ppm or lower (Sphaerotheca fuliginea) | IC90 [6, 13] [µg/mL] | Wheat Leaf Rust Control at a compound concentration of 10 ppm or lower (Puccinia triticina) | IC90 (Rhizoctonia solani (Rs); [14]) [µg/mL] | IC90 [7, 15] [µg/mL] | IC90 (Septoria tritici (St); [16]) [µg/mL] | Septoria Leaf Blotch Control at a compound concentration of 25 ppm or lower [8] | Plant Height (Fusarium graminearum [2]; Table 13) [cm] | further results
1 | COc1ccc(F)cc1[C@@H](O)Cn1c(=O)n(C(C)(C)C(=O)NC(C)C)c(=O)c2c(C)c(-n3nccn3)sc21 [Compound I-185, (R)-2-(1-(2-(5-fluoro-2-methoxyphenyl)-2-hydroxyethyl)-5-methyl-2,4-dioxo-6-(2H-1,2,3-triazol-2-yl)-1,4-dihydrothieno[2,3-d]pyrimidin-3 (2H)-yl)-N-isopropyl-2-methylpropanamide] | 0.4 (≈ 0.734 µM) | ≥ 10 | AA (≥85% control of Asian soybean rust) | A (from 70% to 84% control of wheat fusarium head blight) | 0.4 (≈ 0.734 µM) | 0.08 (≈ 0.147 µM) | AA (≥85% control of barley powdery mildew) | AA (≥85% control of cucumber powdery mildew) | 0.08 (≈ 0.147 µM) | AA (≥85% control of wheat leaf rust) | 0.08 (≈ 0.147 µM) | 0.4 (≈ 0.734 µM) | ≥ 50 | AA (≥85% control of wheat septoria leaf blotch) | – | Plant Height (Fusarium graminearum [2]; Table 12): 45.66 cm
2 | COc1ccc(F)cc1[C@H](Cn1c(=O)n([C@H](C)C(=O)N(C)C(C)C)c(=O)c2c(C)c(-n3nccn3)sc21)OCCC#N [Compound I-205, (R)-2-(1-((R)-2-(2-cyanoethoxy)-2-(5-fluoro-2-methoxyphenyl)ethyl)-5-methyl-2,4-dioxo-6-(2H-1,2,3-triazol-2-yl)-1,4-dihydrothieno[2,3-d]pyrimidin-3 (2H)-yl)-N-isopropyl-N-methylpropanamide] | 0.4 (≈ 0.669 µM) | > 50 | AA (≥85% control of Asian soybean rust) | C (from 25 to 49% control of wheat fusarium head blight) | ≥ 0.08 | 0.4 (≈ 0.669 µM) | AA (≥85% control of barley powdery mildew) | AA (≥85% control of cucumber powdery mildew) | 0.4 (≈ 0.669 µM) | AA (≥85% control of wheat leaf rust) | 0.08 (≈ 0.134 µM) | 0.4 (≈ 0.669 µM) | > 50 | AA (≥85% control of wheat septoria leaf blotch) | 41.47 | –
3 | CCNC(=O)C(C)(C)n1c(=O)c2c(C)c(-n3nccn3)sc2n(C[C@H](OCCC#N)c2cc(F)ccc2OC)c1=O [Compound I-206, (R)-2-(1-(2-(2-cyanoethoxy)-2-(5-fluoro-2-methoxyphenyl)ethyl)-5-methyl-2,4-dioxo-6-(2H-1,2,3-triazol-2-yl)-1,4-dihydrothieno[2,3-d]pyrimidin-3 (2H)-yl)-N-ethyl-2-methylpropanamide] | 0.4 (≈ 0.685 µM) | > 50 | AA (≥85% control of Asian soybean rust) | B (from 50 to 69% control of wheat fusarium head blight) | 0.4 (≈ 0.685 µM) | 0.4 (≈ 0.685 µM) | AA (≥85% control of barley powdery mildew) | AA (≥85% control of cucumber powdery mildew) | 0.08 (≈ 0.137 µM) | AA (≥85% control of wheat leaf rust) | 0.08 (≈ 0.137 µM) | 0.4 (≈ 0.685 µM) | > 50 | AA (≥85% control of wheat septoria leaf blotch) | 42.72 | –
4 | COc1ccc(F)cc1[C@H](Cn1c(=O)n(C(C)(C)C(=O)NC(C)C)c(=O)c2c(C)c(-n3nccn3)sc21)OCCO [Compound I-064, (R)-2-(1-(2-(5-fluoro-2-methoxyphenyl)-2-(2-hydroxyethoxy)ethyl)-5-methyl-2,4-dioxo-6-(2H-1,2,3-triazol-2-yl)-1,4-dihydrothieno[2,3-d]pyrimidin-3 (2H)-yl)-N-isopropyl-2-methylpropanamide] | – | – | A (from 70% to 84% control of Asian soybean rust) | C (from 25 to 49% control of wheat fusarium head blight) | – | – | A (from 70% to 84% control of barley powdery mildew) | AA (≥85% control of cucumber powdery mildew) | – | AA (≥85% control of wheat leaf rust) | – | – | – | A (from 70% to 84% control of wheat septoria leaf blotch) | – | IC90 (Botrtyis cinerea (Bc); ≥90% inhibition, 48 hours vs 2% DMSO control, read-out: Compound Concentration (ppm) sufficient for ≥90% inhibition of growth, Bc): 2 µg/mL (≈ 3.4 µM); IC90 ([1]; ≥90% inhibition, 48 hours vs 2% DMSO control, read-out: Compound Concentration (ppm) sufficient for ≥90% inhibition of growth, Pc): ≥ 2 µg/mL; IC90 (Diplodia maydis (Dm); ≥90% inhibition, 48 hours vs 2% DMSO control, read-out: Compound Concentration (ppm) sufficient for ≥90% inhibition of growth, Dm): 0.4 µg/mL (≈ 0.68 µM); Plant Weight (Pythium ultimum; fresh weight at 14 days): 5.49 g; Improvement in plant weight (Pythium ultimum; [17]): 88%; IC90 ([4]; ≥90% inhibition, 48 hours vs 2% DMSO control, read-out: Compound Concentration (ppm) sufficient for ≥90% inhibition of growth, Fv): 0.4 µg/mL (≈ 0.68 µM); IC90 ([6]; ≥90% inhibition, 48 hours vs 2% DMSO control, read-out: Compound Concentration (ppm) sufficient for ≥90% inhibition of growth, Fm): 0.08 µg/mL (≈ 0.136 µM); IC90 (Rhizoctonia solani (Rs); ≥90% inhibition, 48 hours vs 2% DMSO control, read-out: Compound Concentration (ppm) sufficient for ≥90% inhibition of growth, Rs): ≥ 0.08 µg/mL; IC90 ([7]; ≥90% inhibition, 48 hours vs 2% DMSO control, read-out: Compound Concentration (ppm) sufficient for ≥90% inhibition of growth, Cg): 0.4 µg/mL (≈ 0.68 µM); IC90 (Septoria tritici (St); ≥90% inhibition, 48 hours vs 2% DMSO control, read-out: Compound Concentration (ppm) sufficient for ≥90% inhibition of growth, St): ≥ 2 µg/mL; Plant Weight (Rhizoctonia solani; fresh weight at 14 days): 6.41 g; Improvement in plant weight (Rhizoctonia solani; [17]): 79.9%
